Like-named read-outs stand apart in the source and are kept apart here.
Columns and labels:
[1] = Quantification of nifurtimox and metabolites in human urine (LC-HRMS); format: in vivo; conditions: for AE,urine(0–24h), fasted patients: mean of 6 fasted patients with Chagas disease; for AE,urine(0–24h), fasted patients / AE,urine(0–24h), fed patients: single oral 120 mg nifurtimox; for AE,urine(0–24h), fed patients: mean of 6 fed patients with Chagas disease
Procedure: Urine samples were collected from fasted and fed patients pre-dose (0 h) and at four post-dose intervals (0-4, 4-8, 8-12, and 12-24 h) and stored frozen until required. For analysis, urine samples were thawed at room temperature and homogenized by vortex mixing. […] Equal volumes (75 µL) of an internal standard solution of [^2H8]-nifurtimox dissolved in water (10 µg/mL) were added to each urine, calibration, or control sample and mixed thoroughly. Samples from 6 patients were then analyzed using liquid chromatography-high-resolution mass spectrometry (LC-HRMS) with a 1290 Infinity LC system equipped with a diode array detector and an Orbitrap Fusion™ Lumos™ Tribrid™ HRMS (Thermo Fisher Scientific, Bremen, Germany) with a heated electrospray ionization source. For quantification, the LC conditions were as described above for analysis of rat plasma, and the HRMS parameters were: mass range, 120-600 Da in full scan mode and all ion fragmentation in positive ionization mode; resolution, 240,000; ion source voltage, 3500 V; capillary temperature, 300°C; source temperature, 60°C.
The system was calibrated using the relative peak area as a function of concentration, which was obtained by linear regression. Quantification was performed on a mass basis (μg/mL), with the final calculation for the percentage of dose excreted in urine made on a molar basis to account for the substantial differences (up to ~2.5-fold) in the molecular masses of the compounds of interest. The analytical precision for all analytes was in the range of 1.1% to 4.4%, with an accuracy of 94% to 107%. All concentrations in μg/mL were back-calculated to nmol/mL, and these concentrations were then used to calculate a total molar amount based on the urine volume collected during each interval.

[2] = Unbound fraction (fu) in human plasma; format: in vitro ADME
CYP 1A2 = biological target: T1, CYP 1A2 (Homo sapiens, UniProt P05177); assay: CYP inhibition with probe substrate; format: in vitro ADME; conditions: probe substrate phenacetin
T1 sequence (P05177 1-516): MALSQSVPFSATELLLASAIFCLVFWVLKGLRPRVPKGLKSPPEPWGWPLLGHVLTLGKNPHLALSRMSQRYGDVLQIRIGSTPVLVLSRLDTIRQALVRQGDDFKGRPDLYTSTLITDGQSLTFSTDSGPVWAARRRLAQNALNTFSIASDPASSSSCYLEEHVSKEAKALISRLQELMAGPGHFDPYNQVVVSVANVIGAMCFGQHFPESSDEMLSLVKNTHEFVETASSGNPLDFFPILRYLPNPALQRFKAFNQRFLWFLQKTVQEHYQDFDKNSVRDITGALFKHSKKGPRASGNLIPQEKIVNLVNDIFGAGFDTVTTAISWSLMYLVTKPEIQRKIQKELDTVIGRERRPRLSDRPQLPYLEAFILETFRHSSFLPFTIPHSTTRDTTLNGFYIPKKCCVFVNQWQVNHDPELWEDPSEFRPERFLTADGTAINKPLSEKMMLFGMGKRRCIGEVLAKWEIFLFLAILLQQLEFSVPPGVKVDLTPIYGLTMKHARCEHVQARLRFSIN
Excerpt: (§1) The inhibition of cytochrome P450 (CYP) isoforms and a range of cellular transporters (except multidrug and toxin extrusion [MATE] proteins), as well as the induction of CYP isoforms were investigated using previously described methods.

CYP 2B6 = biological target: T2, CYP 2B6 (Homo sapiens, UniProt P20813); assay: CYP inhibition with probe substrate; format: in vitro ADME; conditions: probe substrate bupropion
T2 sequence (P20813 1-491): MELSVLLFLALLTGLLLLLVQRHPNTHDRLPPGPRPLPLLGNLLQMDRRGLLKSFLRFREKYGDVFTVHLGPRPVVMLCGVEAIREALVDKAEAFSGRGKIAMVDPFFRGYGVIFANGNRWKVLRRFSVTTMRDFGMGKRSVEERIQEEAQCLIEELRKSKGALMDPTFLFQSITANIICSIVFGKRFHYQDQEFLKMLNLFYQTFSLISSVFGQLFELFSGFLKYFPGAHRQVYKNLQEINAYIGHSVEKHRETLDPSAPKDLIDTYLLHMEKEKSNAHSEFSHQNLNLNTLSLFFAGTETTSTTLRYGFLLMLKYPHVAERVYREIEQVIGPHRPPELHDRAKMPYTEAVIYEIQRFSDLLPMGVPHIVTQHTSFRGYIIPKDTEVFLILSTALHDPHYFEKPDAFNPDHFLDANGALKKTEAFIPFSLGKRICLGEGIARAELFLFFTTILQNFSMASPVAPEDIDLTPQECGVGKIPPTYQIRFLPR
Excerpt: as §1

CYP 2D6 = CYP 2D6 (Homo sapiens, UniProt P10635); assay: CYP inhibition with probe substrate; format: in vitro ADME; conditions: probe substrate dextromethorphan
Excerpt: as §1

BCRP = biological target: T3, BCRP (Homo sapiens, UniProt Q9UNQ0); assay: Efflux transporter inhibition; format: in vitro ADME
T3 sequence (Q9UNQ0 1-655): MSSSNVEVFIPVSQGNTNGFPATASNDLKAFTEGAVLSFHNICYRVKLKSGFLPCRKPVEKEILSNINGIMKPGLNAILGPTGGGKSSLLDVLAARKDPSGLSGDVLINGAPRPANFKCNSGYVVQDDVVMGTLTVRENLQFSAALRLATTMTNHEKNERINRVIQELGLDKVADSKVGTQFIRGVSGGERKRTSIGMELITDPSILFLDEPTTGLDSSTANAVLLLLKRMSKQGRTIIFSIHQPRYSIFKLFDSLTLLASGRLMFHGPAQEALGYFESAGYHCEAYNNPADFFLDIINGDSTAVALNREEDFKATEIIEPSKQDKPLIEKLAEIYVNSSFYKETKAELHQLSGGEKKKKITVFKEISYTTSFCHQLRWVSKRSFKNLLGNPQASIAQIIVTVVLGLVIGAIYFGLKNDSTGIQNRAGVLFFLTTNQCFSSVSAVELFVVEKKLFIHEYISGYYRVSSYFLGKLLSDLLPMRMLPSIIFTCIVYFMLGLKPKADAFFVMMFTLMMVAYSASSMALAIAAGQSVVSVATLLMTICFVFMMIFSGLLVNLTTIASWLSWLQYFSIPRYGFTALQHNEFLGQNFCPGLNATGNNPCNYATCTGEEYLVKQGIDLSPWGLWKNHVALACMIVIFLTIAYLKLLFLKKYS
Excerpt: as §1

P-gp = P-gp (Homo sapiens, UniProt P08183); assay: Efflux transporter inhibition; format: in vitro ADME
Excerpt: as §1

[3] = 30-min preincubation, read-out: Pre- IC50 (+ NADPH)
[4] = coincubation, read-out: Co- IC50
[5] = probe substrate digoxin, for M-4 the highest test concentration of 20 µM was not valid

P-gp, sequence (P08183 whole entry): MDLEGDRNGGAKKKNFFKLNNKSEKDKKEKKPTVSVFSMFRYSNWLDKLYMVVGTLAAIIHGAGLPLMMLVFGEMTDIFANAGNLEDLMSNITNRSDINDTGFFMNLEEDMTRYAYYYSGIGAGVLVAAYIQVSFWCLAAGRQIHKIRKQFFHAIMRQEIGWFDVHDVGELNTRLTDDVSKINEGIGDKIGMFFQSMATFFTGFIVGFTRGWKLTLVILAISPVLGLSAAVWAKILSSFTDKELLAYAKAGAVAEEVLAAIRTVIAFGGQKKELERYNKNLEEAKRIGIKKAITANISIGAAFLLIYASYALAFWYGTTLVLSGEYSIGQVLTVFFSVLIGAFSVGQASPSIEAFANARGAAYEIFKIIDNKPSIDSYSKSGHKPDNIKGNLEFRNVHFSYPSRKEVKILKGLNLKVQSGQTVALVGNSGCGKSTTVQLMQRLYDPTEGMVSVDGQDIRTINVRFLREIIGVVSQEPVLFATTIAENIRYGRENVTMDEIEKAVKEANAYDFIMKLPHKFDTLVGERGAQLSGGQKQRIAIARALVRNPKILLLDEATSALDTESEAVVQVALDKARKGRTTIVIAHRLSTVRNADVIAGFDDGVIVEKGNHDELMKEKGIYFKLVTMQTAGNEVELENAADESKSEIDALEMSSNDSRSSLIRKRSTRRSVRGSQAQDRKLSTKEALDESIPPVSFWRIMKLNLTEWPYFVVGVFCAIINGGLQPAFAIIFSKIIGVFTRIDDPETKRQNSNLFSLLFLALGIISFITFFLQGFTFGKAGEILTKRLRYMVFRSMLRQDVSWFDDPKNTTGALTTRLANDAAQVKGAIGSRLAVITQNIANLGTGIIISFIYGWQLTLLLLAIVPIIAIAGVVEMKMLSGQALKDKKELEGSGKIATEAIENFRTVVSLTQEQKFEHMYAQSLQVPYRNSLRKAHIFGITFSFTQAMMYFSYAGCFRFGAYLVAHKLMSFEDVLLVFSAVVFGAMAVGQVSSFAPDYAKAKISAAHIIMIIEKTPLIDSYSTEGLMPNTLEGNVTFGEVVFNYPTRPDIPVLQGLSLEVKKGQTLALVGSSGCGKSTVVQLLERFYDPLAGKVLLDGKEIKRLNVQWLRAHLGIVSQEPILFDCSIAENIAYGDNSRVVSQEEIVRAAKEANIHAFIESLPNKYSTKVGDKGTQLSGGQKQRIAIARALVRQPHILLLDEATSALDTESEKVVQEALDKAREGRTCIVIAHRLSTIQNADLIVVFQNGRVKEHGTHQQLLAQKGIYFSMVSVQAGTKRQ
CYP 2D6, sequence (P10635 whole entry): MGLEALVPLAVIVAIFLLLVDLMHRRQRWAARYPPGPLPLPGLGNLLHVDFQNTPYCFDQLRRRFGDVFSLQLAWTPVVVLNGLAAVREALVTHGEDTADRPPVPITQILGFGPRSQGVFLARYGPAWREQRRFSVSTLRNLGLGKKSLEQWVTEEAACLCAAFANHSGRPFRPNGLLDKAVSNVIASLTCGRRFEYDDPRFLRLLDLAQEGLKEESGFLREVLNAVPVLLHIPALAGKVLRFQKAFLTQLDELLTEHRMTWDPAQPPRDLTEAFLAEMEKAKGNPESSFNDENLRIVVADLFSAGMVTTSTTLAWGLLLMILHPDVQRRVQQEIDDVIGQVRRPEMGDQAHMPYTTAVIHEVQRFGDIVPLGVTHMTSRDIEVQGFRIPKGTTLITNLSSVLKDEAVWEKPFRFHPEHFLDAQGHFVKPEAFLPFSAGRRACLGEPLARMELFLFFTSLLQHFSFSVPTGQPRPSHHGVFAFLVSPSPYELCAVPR

| SMILES | AE,urine(0–24h), fasted patients [1] | AE,urine(0–24h), fed patients [1] | fraction unbound [2] | IC50 (CYP 1A2; [3]) | IC50 (CYP 1A2; [4]) | TDI (time-dependent inhibition) (CYP 1A2) | IC50 (CYP 2B6; [3]) | IC50 (CYP 2B6; [4]) | TDI (time-dependent inhibition) (CYP 2B6) | IC50 (CYP 2D6; [3]) | IC50 (CYP 2D6; [4]) | TDI (time-dependent inhibition) (CYP 2D6) | IC50 (BCRP; probe substrate fluvastatin) | IC50 (BCRP; probe substrate topotecan) | IC50 (P-gp; [5]) | IC50 (P-gp; probe substrate dipyridamole) | unchanged nifurtimox in urine, on average ([1]; fed and fasted patients, single oral 120 mg) |
| --- | --- | --- | --- | --- | --- | --- | --- | --- | --- | --- | --- | --- | --- | --- | --- | --- | --- |
| CC1CS(=O)(=O)CCN1n1cc(SCC(N)C(=O)O)ccc1=O (stereo not drawn) [M-4] | 5.9 % of dose | 12.3 % of dose | 1 | > 20 µM | > 20 µM | No | > 20 µM | > 20 µM | No | > 20 µM | > 20 µM | No | > 20 µM | > 20 µM | > 5 µM | > 20 µM | – |
| CC1CS(=O)(=O)CCN1/N=C/c1ccc([N+](=O)[O-])o1 (stereo not drawn) [Nifurtimox, (E)-N-(3-methyl-1,1-dioxo-1,4-thiazinan-4-yl)-1-(5-nitrofuran-2-yl) methanimine, reference compound] | 0.03 % of dose | 0.07 % of dose | 0.576 | > 50 µM | > 50 µM | No | > 50 µM | > 50 µM | No | > 50 µM | > 50 µM | No | – | > 100 µM | > 100 µM | > 100 µM | less than 0.1 % of the administered dose |
| CC1CS(=O)(=O)CCN1N (stereo not drawn) [M-6] | 13.7 % of dose | 20.8 % of dose | 1 | > 100 µM | > 100 µM | No | > 100 µM | > 100 µM | No | > 100 µM | > 100 µM | No | > 200 µM | > 200 µM | > 200 µM | > 200 µM | – |

— article PMC10661964 (Current Drug Metabolism, 2023)
